Assay: Carotenoid content in fish flesh of silver salmon by HPLC
Type: in vivo, Oncorhynchus kisutch
Conditions: Fermented product division, silver salmon fish flesh, 6 months
Procedure: In the examples, the quantification of the carotenoid colorant was performed using high performance liquid chromatography (HPLC). Two columns of Wakosil-II 5 SIL-100 φ4.6×250 mm (produced by Wako Pure Chemical Industries, Ltd.) were connected to each other. An n-hexane:tetrahydrofuran:methanol (40:20:1) mixed solution was used as a mobile phase. A constant room temperature and a flow rate of 1.0 ml/min were used. The detection was performed at a wavelength of 470 nm. The feed or fish flesh was milled, and then the colorant was extracted with a tetrahydrofuran:methanol (20:1) mixed solution. The colorant was appropriately diluted with the mobile phase and analyzed by HPLC. 300 silver salmons (Oncorhynchus kisutch) each weighing about 200 g were cultivated as a test division of being fed with the above-described fermented product, and another 300 silver salmons each weighing about 200 g were cultivated as a test division of being fed with the above-described synthetic product. The salmons were fed in satiation in a marine fish pen for 6 months. After the 6 months of cultivating, 10 fish of each test division were weighed. […] The fish were immediately killed by cutting medulla and frozen for preservation. After being thawed, the fish flesh was milled by a coffee mill, and a part thereof was put into a polyethylene bag to measure the color tone thereof by a spectrometer CM-508i (Minolta). […] From a part of the milled fish flesh, the carotenoid colorant was extracted, and analyzed in terms of the content of each carotenoid compound by HPLC.

SMILES	Ratio to astaxanthin
CC1=C(/C=C/C(C)=C/C=C/C(C)=C/C=C/C=C(C)/C=C/C=C(C)/C=C/C2=C(C)C(=O)CCC2(C)C)C(C)(C)CCC1=O [Canthaxanthin]	1.0%
CC1=C(/C=C/C(C)=C/C=C/C(C)=C/C=C/C=C(C)/C=C/C=C(C)/C=C/C2=C(C)C(=O)CCC2(C)C)C(C)(C)CCC1 [Equinenone]	0.2 or less %
CC1=C(/C=C/C(C)=C/C=C/C(C)=C/C=C/C=C(C)/C=C/C=C(C)/C=C/C2=C(C)C(=O)[C@@H](O)CC2(C)C)C(C)(C)CCC1=O [Phoenicoxanthin]	11.5%

Same assay, conditions: Fermented product division, silver salmon, 6 months, average of 10 fish

SMILES	Content in fish flesh
CC1=C(/C=C/C(C)=C/C=C/C(C)=C/C=C/C=C(C)/C=C/C=C(C)/C=C/C2=C(C)C(=O)CCC2(C)C)C(C)(C)CCC1=O [Canthaxanthin]	0.1 mg/kg
CC1=C(/C=C/C(C)=C/C=C/C(C)=C/C=C/C=C(C)/C=C/C=C(C)/C=C/C2=C(C)C(=O)CCC2(C)C)C(C)(C)CCC1 [Equinenone]	0.02 or less mg/kg
CC1=C(/C=C/C(C)=C/C=C/C(C)=C/C=C/C=C(C)/C=C/C=C(C)/C=C/C2=C(C)C(=O)[C@@H](O)CC2(C)C)C(C)(C)CCC1=O [Phoenicoxanthin]	1.2 mg/kg

Same assay, conditions: Synthetic product division, silver salmon, 6 months, average of 10 fish

SMILES	Content in fish flesh
CC1=C(/C=C/C(C)=C/C=C/C(C)=C/C=C/C=C(C)/C=C/C=C(C)/C=C/C2=C(C)C(=O)CCC2(C)C)C(C)(C)CCC1=O [Canthaxanthin]	0.02 or less mg/kg
CC1=C(/C=C/C(C)=C/C=C/C(C)=C/C=C/C=C(C)/C=C/C=C(C)/C=C/C2=C(C)C(=O)CCC2(C)C)C(C)(C)CCC1 [Equinenone]	0.02 or less mg/kg
CC1=C(/C=C/C(C)=C/C=C/C(C)=C/C=C/C=C(C)/C=C/C=C(C)/C=C/C2=C(C)C(=O)[C@@H](O)CC2(C)C)C(C)(C)CCC1=O [Phoenicoxanthin]	0.02 or less mg/kg

Assay: Carotenoid content in fish flesh of rainbow trout by HPLC
Type: in vivo, Oncorhynchus mykiss
Conditions: Fermented product division, rainbow trout fish flesh, 3 months
Procedure: In the examples, the quantification of the carotenoid colorant was performed using high performance liquid chromatography (HPLC). Two columns of Wakosil-II 5 SIL-100 φ4.6×250 mm (produced by Wako Pure Chemical Industries, Ltd.) were connected to each other. An n-hexane:tetrahydrofuran:methanol (40:20:1) mixed solution was used as a mobile phase. A constant room temperature and a flow rate of 1.0 ml/min were used. The detection was performed at a wavelength of 470 nm. The feed or fish flesh was milled, and then the colorant was extracted with a tetrahydrofuran:methanol (20:1) mixed solution. The colorant was appropriately diluted with the mobile phase and analyzed by HPLC. 50 rainbow trouts (Oncorhynchus mykiss) each weighing about 100 g were cultivated in a water tank as a test division of being fed with the above-described fermented product, and another 50 rainbow trouts each weighing about 100 g were cultivated in a water tank as a test division of being fed with the above-described synthetic product. The trouts of each test division were fed in satiation in fresh water for 3 months. After the 3 months of cultivating, 12 fish of each test division were weighed. […] The fish were immediately killed by cutting medulla. […] After the measurement, the fish flesh was frozen for preservation. After being thawed, the fish flesh of the 12 fish of each test division was analyzed in terms of the content of each carotenoid compound.

SMILES	Ratio to astaxanthin
CC1=C(/C=C/C(C)=C/C=C/C(C)=C/C=C/C=C(C)/C=C/C=C(C)/C=C/C2=C(C)C(=O)CCC2(C)C)C(C)(C)CCC1=O [Canthaxanthin]	11.8%
CC1=C(/C=C/C(C)=C/C=C/C(C)=C/C=C/C=C(C)/C=C/C=C(C)/C=C/C2=C(C)C(=O)CCC2(C)C)C(C)(C)CCC1 [Equinenone]	0.6 or less %
CC1=C(/C=C/C(C)=C/C=C/C(C)=C/C=C/C=C(C)/C=C/C=C(C)/C=C/C2=C(C)C(=O)[C@@H](O)CC2(C)C)C(C)(C)CCC1=O [Phoenicoxanthin]	67.6%

Same assay, conditions: Fermented product division, rainbow trout, 3 months, average of 12 fish

SMILES	Content in fish flesh
CC1=C(/C=C/C(C)=C/C=C/C(C)=C/C=C/C=C(C)/C=C/C=C(C)/C=C/C2=C(C)C(=O)CCC2(C)C)C(C)(C)CCC1=O [Canthaxanthin]	0.4 mg/kg
CC1=C(/C=C/C(C)=C/C=C/C(C)=C/C=C/C=C(C)/C=C/C=C(C)/C=C/C2=C(C)C(=O)CCC2(C)C)C(C)(C)CCC1 [Equinenone]	0.02 or less mg/kg
CC1=C(/C=C/C(C)=C/C=C/C(C)=C/C=C/C=C(C)/C=C/C=C(C)/C=C/C2=C(C)C(=O)[C@@H](O)CC2(C)C)C(C)(C)CCC1=O [Phoenicoxanthin]	2.3 mg/kg

Same assay, conditions: Synthetic product division, rainbow trout, 3 months, average of 12 fish

SMILES	Content in fish flesh
CC1=C(/C=C/C(C)=C/C=C/C(C)=C/C=C/C=C(C)/C=C/C=C(C)/C=C/C2=C(C)C(=O)CCC2(C)C)C(C)(C)CCC1=O [Canthaxanthin]	0.02 or less mg/kg
CC1=C(/C=C/C(C)=C/C=C/C(C)=C/C=C/C=C(C)/C=C/C=C(C)/C=C/C2=C(C)C(=O)CCC2(C)C)C(C)(C)CCC1 [Equinenone]	0.02 or less mg/kg
CC1=C(/C=C/C(C)=C/C=C/C(C)=C/C=C/C=C(C)/C=C/C=C(C)/C=C/C2=C(C)C(=O)[C@@H](O)CC2(C)C)C(C)(C)CCC1=O [Phoenicoxanthin]	0.02 or less mg/kg

Assay: Carotenoid content in fish flesh of Atlantic salmon by HPLC
Type: in vivo, Salmo salar
Conditions: Fermented product division, Atlantic salmon fish flesh, 12 months
Procedure: In the examples, the quantification of the carotenoid colorant was performed using high performance liquid chromatography (HPLC). Two columns of Wakosil-II 5 SIL-100 φ4.6×250 mm (produced by Wako Pure Chemical Industries, Ltd.) were connected to each other. An n-hexane:tetrahydrofuran:methanol (40:20:1) mixed solution was used as a mobile phase. A constant room temperature and a flow rate of 1.0 ml/min were used. The detection was performed at a wavelength of 470 nm. The feed or fish flesh was milled, and then the colorant was extracted with a tetrahydrofuran:methanol (20:1) mixed solution. The colorant was appropriately diluted with the mobile phase and analyzed by HPLC. 400 Atlantic salmons (Salmo salar) each weighing about 300 g were cultivated as a test division of being fed with the above-described fermented product, and another 400 Atlantic salmons each weighing about 300 g were cultivated as a test division of being fed with the above-described synthetic product. The salmons were fed in satiation in a marine fish pen for 12 months. After the 12 months of cultivating, 20 fish of each test division were landed and weighed. […] The fish were immediately killed by cutting medulla, and the fish flesh was measured in terms of the color tone by a spectrometer. […] After the measurement, the fish flesh was frozen for preservation for 1 month. After being thawed, the fish flesh of the 20 fish of each test division was analyzed in terms of the content of each carotenoid compound.

SMILES	Ratio to astaxanthin
CC1=C(/C=C/C(C)=C/C=C/C(C)=C/C=C/C=C(C)/C=C/C=C(C)/C=C/C2=C(C)C(=O)CCC2(C)C)C(C)(C)CCC1=O [Canthaxanthin]	9.8%
CC1=C(/C=C/C(C)=C/C=C/C(C)=C/C=C/C=C(C)/C=C/C=C(C)/C=C/C2=C(C)C(=O)CCC2(C)C)C(C)(C)CCC1 [Equinenone]	0.5 or less %
CC1=C(/C=C/C(C)=C/C=C/C(C)=C/C=C/C=C(C)/C=C/C=C(C)/C=C/C2=C(C)C(=O)[C@@H](O)CC2(C)C)C(C)(C)CCC1=O [Phoenicoxanthin]	41.5%

Same assay, conditions: Fermented product division, Atlantic salmon, 12 months, flesh frozen 1 month, average of 20 fish

SMILES	Content in fish flesh
CC1=C(/C=C/C(C)=C/C=C/C(C)=C/C=C/C=C(C)/C=C/C=C(C)/C=C/C2=C(C)C(=O)CCC2(C)C)C(C)(C)CCC1=O [Canthaxanthin]	0.4 mg/kg
CC1=C(/C=C/C(C)=C/C=C/C(C)=C/C=C/C=C(C)/C=C/C=C(C)/C=C/C2=C(C)C(=O)CCC2(C)C)C(C)(C)CCC1 [Equinenone]	0.02 or less mg/kg
CC1=C(/C=C/C(C)=C/C=C/C(C)=C/C=C/C=C(C)/C=C/C=C(C)/C=C/C2=C(C)C(=O)[C@@H](O)CC2(C)C)C(C)(C)CCC1=O [Phoenicoxanthin]	1.7 mg/kg

Same assay, conditions: Synthetic product division, Atlantic salmon, 12 months, flesh frozen 1 month, average of 20 fish

SMILES	Content in fish flesh
CC1=C(/C=C/C(C)=C/C=C/C(C)=C/C=C/C=C(C)/C=C/C=C(C)/C=C/C2=C(C)C(=O)CCC2(C)C)C(C)(C)CCC1=O [Canthaxanthin]	0.02 or less mg/kg
CC1=C(/C=C/C(C)=C/C=C/C(C)=C/C=C/C=C(C)/C=C/C=C(C)/C=C/C2=C(C)C(=O)CCC2(C)C)C(C)(C)CCC1 [Equinenone]	0.02 or less mg/kg
CC1=C(/C=C/C(C)=C/C=C/C(C)=C/C=C/C=C(C)/C=C/C=C(C)/C=C/C2=C(C)C(=O)[C@@H](O)CC2(C)C)C(C)(C)CCC1=O [Phoenicoxanthin]	0.02 or less mg/kg

Assay: Carotenoid content in fish flesh of king salmon by HPLC
Type: in vivo, Oncorhynchus tshawytscha
Conditions: Fermented product division, king salmon fish flesh, 3 months
Procedure: In the examples, the quantification of the carotenoid colorant was performed using high performance liquid chromatography (HPLC). Two columns of Wakosil-II 5 SIL-100 φ4.6×250 mm (produced by Wako Pure Chemical Industries, Ltd.) were connected to each other. An n-hexane:tetrahydrofuran:methanol (40:20:1) mixed solution was used as a mobile phase. A constant room temperature and a flow rate of 1.0 ml/min were used. The detection was performed at a wavelength of 470 nm. The feed or fish flesh was milled, and then the colorant was extracted with a tetrahydrofuran:methanol (20:1) mixed solution. The colorant was appropriately diluted with the mobile phase and analyzed by HPLC. 100 king salmons (Oncorhynchus tshawytscha) each weighing about 200 g were cultivated as a test division of being fed with the above-described fermented product, and another 100 king salmons each weighing about 200 g were cultivated as a test division of being fed with the above-described synthetic product. The salmons were fed in satiation in a marine fish pen for 3 months. After the 3 months of cultivating, 15 fish of each test division were sampled and weighed. […] The fish were immediately killed by cutting medulla. […] After the measurement, the fish flesh was frozen for preservation for 1 month. After being thawed, the fish flesh of the fish of each test division was analyzed in terms of the content of each carotenoid compound.

SMILES	Ratio to astaxanthin
CC1=C(/C=C/C(C)=C/C=C/C(C)=C/C=C/C=C(C)/C=C/C=C(C)/C=C/C2=C(C)C(=O)CCC2(C)C)C(C)(C)CCC1=O [Canthaxanthin]	6.5%
CC1=C(/C=C/C(C)=C/C=C/C(C)=C/C=C/C=C(C)/C=C/C=C(C)/C=C/C2=C(C)C(=O)CCC2(C)C)C(C)(C)CCC1 [Equinenone]	0.5 or less %
CC1=C(/C=C/C(C)=C/C=C/C(C)=C/C=C/C=C(C)/C=C/C=C(C)/C=C/C2=C(C)C(=O)[C@@H](O)CC2(C)C)C(C)(C)CCC1=O [Phoenicoxanthin]	45.7%

Same assay, conditions: Fermented product division, king salmon, 3 months, flesh frozen 1 month, average of 15 fish

SMILES	Content in fish flesh
CC1=C(/C=C/C(C)=C/C=C/C(C)=C/C=C/C=C(C)/C=C/C=C(C)/C=C/C2=C(C)C(=O)CCC2(C)C)C(C)(C)CCC1=O [Canthaxanthin]	0.3 mg/kg
CC1=C(/C=C/C(C)=C/C=C/C(C)=C/C=C/C=C(C)/C=C/C=C(C)/C=C/C2=C(C)C(=O)CCC2(C)C)C(C)(C)CCC1 [Equinenone]	0.02 or less mg/kg
CC1=C(/C=C/C(C)=C/C=C/C(C)=C/C=C/C=C(C)/C=C/C=C(C)/C=C/C2=C(C)C(=O)[C@@H](O)CC2(C)C)C(C)(C)CCC1=O [Phoenicoxanthin]	2.1 mg/kg

Same assay, conditions: Synthetic product division, king salmon, 3 months, flesh frozen 1 month, average of 15 fish

SMILES	Content in fish flesh
CC1=C(/C=C/C(C)=C/C=C/C(C)=C/C=C/C=C(C)/C=C/C=C(C)/C=C/C2=C(C)C(=O)CCC2(C)C)C(C)(C)CCC1=O [Canthaxanthin]	0.02 or less mg/kg
CC1=C(/C=C/C(C)=C/C=C/C(C)=C/C=C/C=C(C)/C=C/C=C(C)/C=C/C2=C(C)C(=O)CCC2(C)C)C(C)(C)CCC1 [Equinenone]	0.02 or less mg/kg
CC1=C(/C=C/C(C)=C/C=C/C(C)=C/C=C/C=C(C)/C=C/C=C(C)/C=C/C2=C(C)C(=O)[C@@H](O)CC2(C)C)C(C)(C)CCC1=O [Phoenicoxanthin]	0.02 or less mg/kg

— patent US8999664B2, “Method of improving salmon meat color” (JX Nippon Oil & Energy Corporation, priority 2006, dated 2015)
